Measurements as given in patent publication EP2140864A2 (H. Lundbeck A/S, priority 2001, dated 2002).
Where two headings read alike, the source gives them in different places.

Experiments:
human 5HT7 = biological target: T1, human 5HT7 (Homo sapiens, UniProt P34969); assay: Radioligand binding, 5HT7 receptor ([3H]-serotonin)
T1 construct: expressed in transfected cells
Experimental: Human 5HT1B, 5HT1D, 5HT1E, 5HT1F, and 5HT7 Receptors: The cell lysates of LM(tk-) clonal cell line stably transfected with the genes encoding each of these 5HT receptor-subtypes were prepared as described above. Cell membranes were suspended in 50mM Tris-HCl buffer (pH 7.4 at 37°C) containing 10 mM MgCl2, 0.2 mM EDTA, 10 µM pargyline, and 0.1% ascorbate. […] Nonspecific binding was determined in the presence of 10 µM serotonin. The bound radioligand was separated by filtration through GF/B filters using a cell harvester.
(§1) Binding data were analyzed using nonlinear regression and statistical techniques available in the GraphPAD Prism package (San Diego, CA). Enzymatic assay data were derived from a standard curve of reference compound data.

human 5HT6 = biological target: T2, human 5HT6 (Homo sapiens, UniProt P50406); assay: Radioligand binding, 5-HT6 receptor
T2 construct: expressed in transfected cells
T2 sequence (P50406 whole entry): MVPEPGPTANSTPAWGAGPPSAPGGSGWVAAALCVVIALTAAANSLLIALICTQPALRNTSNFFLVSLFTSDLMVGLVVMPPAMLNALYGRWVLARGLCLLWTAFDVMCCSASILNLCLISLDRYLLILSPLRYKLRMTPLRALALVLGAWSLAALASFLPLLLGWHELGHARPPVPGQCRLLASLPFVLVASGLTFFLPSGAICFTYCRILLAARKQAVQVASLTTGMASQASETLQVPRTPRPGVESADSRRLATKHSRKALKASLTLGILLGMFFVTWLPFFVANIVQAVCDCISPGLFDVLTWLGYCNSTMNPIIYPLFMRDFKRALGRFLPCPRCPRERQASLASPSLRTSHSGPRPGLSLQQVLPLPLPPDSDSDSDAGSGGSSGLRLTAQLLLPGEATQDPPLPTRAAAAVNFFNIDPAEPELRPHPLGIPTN
Experimental: Other 5-HT Receptors: Other serotonin receptor binding assays were performed according to published methods: rat 5HT2C receptor (Julius et al., 1988); and 5-HT6 (Monsma, et al., 1993). The binding assays using the 5-HT4 receptor were performed according to the procedures described in U.S. Patent No. 5,766,879, the disclosure of which is hereby incorporated by reference in its entirety into this application.
as §1

rat D3 receptors = biological target: T3, rat D3 receptors (Rattus norvegicus, UniProt P19020); assay: Radioligand binding, dopamine D3 receptor
T3 construct: purchased BioSignal, Inc. (Montreal, Canada)
T3 sequence (P19020 whole entry): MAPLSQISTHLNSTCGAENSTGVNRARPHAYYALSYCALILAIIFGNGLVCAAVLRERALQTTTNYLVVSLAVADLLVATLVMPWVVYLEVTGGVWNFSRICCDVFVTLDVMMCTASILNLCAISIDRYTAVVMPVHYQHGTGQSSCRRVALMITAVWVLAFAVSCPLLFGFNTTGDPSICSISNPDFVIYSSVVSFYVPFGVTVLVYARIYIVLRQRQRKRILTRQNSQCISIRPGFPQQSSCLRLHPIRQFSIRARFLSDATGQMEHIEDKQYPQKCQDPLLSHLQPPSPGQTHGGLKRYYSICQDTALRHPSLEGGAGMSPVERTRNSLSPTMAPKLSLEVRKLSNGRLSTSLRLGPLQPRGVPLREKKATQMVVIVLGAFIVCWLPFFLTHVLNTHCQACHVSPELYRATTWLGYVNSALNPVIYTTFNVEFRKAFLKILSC
Description: Other receptors: Cell membranes expressing human dopamine D1, D2, D4 and rat D3 receptors were purchased through BioSignal, Inc. (Montreal, Canada). Binding assays using the histamine H1 receptor; dopamine receptors; and α1A, α1E, and α2 adrenergic receptors may be carried out according to the procedures described in U.S. Patent No. 5,780,485, the disclosure of which is hereby incorporated by reference in its entirety into this application. Binding assays using the dopamine D5 receptor may be carried out according to the procedures described in U.S. Patent No. 5,882,855, the disclosure of which is hereby incorporated by reference in its entirety into this application. Binding assays for the human α1D adrenergic receptor may be carried out according to the procedures described in U.S. Patent No. 6,156,518, the disclosure of which is hereby incorporated by reference in its entirety into this application.
as §1

Human 5HT2A Receptor = biological target: T4, Human 5HT2A Receptor (Homo sapiens, UniProt P28223); assay: Radioligand binding, 5HT2A receptor ([3H]ketanserin)
T4 construct: expressed in transfected cells; host or cells: COS-7 cells (pCEXV-3 vector, DEAE-dextran)
T4 sequence (P28223 whole entry): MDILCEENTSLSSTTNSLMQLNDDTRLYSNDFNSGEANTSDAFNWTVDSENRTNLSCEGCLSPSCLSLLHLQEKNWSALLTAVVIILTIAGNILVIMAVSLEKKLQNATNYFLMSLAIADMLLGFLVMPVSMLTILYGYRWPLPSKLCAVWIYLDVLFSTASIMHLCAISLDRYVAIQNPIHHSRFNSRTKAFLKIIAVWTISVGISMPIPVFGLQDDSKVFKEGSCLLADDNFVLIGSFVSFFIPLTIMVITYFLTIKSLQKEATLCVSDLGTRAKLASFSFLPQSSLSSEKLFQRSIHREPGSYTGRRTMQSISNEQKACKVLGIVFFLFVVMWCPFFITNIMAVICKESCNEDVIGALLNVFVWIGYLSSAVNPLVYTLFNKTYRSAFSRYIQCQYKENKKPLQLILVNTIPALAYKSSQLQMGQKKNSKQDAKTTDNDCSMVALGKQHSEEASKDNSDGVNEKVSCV
Experimental: Human 5HT2A Receptor: The coding sequence of the human 5HT2A receptor was obtained from a human brain cortex cDNA library, and cloned into the cloning site of pCEXV-3 eukaryotic expression vector. This construct was transfected into COS-7 cells by the DEAE-dextran method (Cullen, 1987). Cells were harvested after 72 hours and lysed by sonication in 5 mM Tris-HCl, 5 mM EDTA, pH 7.5. The cell lysates were subjected to centrifugation at 1000 rpm for 5 minutes at 4°C, and the supernatant was subjected to centrifugation at 30,000 x g for 20 minutes at 4°C. The pellet was suspended in 50 mM Tris-HCl buffer (pH 7.7 at room temperature) containing 10 mM MgS04, 0.5 mM EDTA, and 0.1% ascorbate. The affinity of compounds at 5HT2A receptors were determined in equilibrium competition binding assays using [^3H]ketanserin (1 nM). Nonspecific binding was defined by the addition of 10 µM mianserin. The bound radioligand was separated by filtration through GF/B filters using a cell harvester.
as §1

human GAL2 receptor = biological target: T5, human GAL2 receptor (Homo sapiens, UniProt O43603); assay: Radioligand binding at cloned human GAL2 receptor
T5 construct: expressed in transfected cells
T5 sequence (O43603 1-387): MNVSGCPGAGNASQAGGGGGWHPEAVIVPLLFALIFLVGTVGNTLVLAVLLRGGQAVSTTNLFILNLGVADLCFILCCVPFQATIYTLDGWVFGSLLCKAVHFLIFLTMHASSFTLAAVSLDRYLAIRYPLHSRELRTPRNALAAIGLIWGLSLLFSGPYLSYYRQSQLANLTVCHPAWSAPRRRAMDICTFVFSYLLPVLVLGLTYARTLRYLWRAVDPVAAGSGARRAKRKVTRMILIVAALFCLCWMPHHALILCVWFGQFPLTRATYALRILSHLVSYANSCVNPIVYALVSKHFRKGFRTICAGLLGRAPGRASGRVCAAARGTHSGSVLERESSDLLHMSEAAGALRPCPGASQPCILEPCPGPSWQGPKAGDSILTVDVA
Summary of the method: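 Membranes from CHO cells stably expressing human GAL2 and LM(tk-) cells stably expressing human GAL1, resuspended in binding buffer (10 mM NaCl, 20 mM HEPES, pH 7.4). Binding data fitted by nonlinear regression.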

[1] = Table 8; Ki h5HT7 divided by Ki hGAL3
[2] = Table 8; Ki h5HT6 divided by Ki hGAL3
[3] = Table 10; Ki rD3 divided by Ki hGAL3
[4] = Table 8; Ki h5HT2A divided by Ki hGAL3
[5] = pyrimidines, read-out: Ki GalR2

T1 sequence (P34969 1-445 isoform P34969-2): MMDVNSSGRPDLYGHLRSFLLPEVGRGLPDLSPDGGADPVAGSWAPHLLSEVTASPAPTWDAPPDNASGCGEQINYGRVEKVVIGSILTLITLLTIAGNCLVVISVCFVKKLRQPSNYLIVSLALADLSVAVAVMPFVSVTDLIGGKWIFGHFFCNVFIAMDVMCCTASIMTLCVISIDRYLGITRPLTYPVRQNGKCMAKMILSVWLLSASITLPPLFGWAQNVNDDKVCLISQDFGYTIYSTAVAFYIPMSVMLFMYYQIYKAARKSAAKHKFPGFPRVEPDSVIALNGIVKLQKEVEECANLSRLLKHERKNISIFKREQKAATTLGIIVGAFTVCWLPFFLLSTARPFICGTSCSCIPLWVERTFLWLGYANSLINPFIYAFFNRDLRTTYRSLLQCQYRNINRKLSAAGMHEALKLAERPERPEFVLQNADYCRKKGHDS

| SMILES | Ki (human 5HT7; Table 7; read-out: h5HT7 Ki) | selectivity ratio h5HT7 (human 5HT7; [1]) | Ki (human 5HT6; Table 7; read-out: h5HT6 Ki) | selectivity ratio h5HT6 (human 5HT6; [2]) | Ki (rat D3 receptors; Table 9; read-out: rD3 Ki) | selectivity ratio rD3 (rat D3 receptors; [3]) | Ki (Human 5HT2A Receptor; Table 7; read-out: h5HT2A Ki) | selectivity ratio h5HT2A (Human 5HT2A Receptor; [4]) | Ki (human GAL2 receptor; indolones, read-out: Ki GalR2) | Ki (human GAL2 receptor; [5]) | Ki (human 5HT7; read-out: h5HT7 Ki; Table 7) | Ki (human 5HT6; read-out: h5HT6 Ki; Table 7) | Ki (rat D3 receptors; read-out: rD3 Ki; Table 9) | Ki (Human 5HT2A Receptor; read-out: h5HT2A Ki; Table 7) | Ki (human GAL2 receptor; read-out: Ki GalR2, pyrimidines) |
| --- | --- | --- | --- | --- | --- | --- | --- | --- | --- | --- | --- | --- | --- | --- | --- |
| O=C1C(=Nc2cccc(Cl)c2)c2ccccc2N1c1ccccc1 [Example 94, 3-[(3-CHLOROPHENYL)IMINO]-1-PHENYL-1,3-DIHYDRO-2H-INDOL-2-ONE] | 8.02 µM | >100 | 3.65 µM | >30 | 0.423 µM | 9 | > 50 µM | >100 | > 10 µM |  |  |  |  |  |  |
| COc1cccc(Nc2cc(N3CCCCC3)nc(N(C)CCc3c[nH]c4ccccc34)n2)c1 [Example 17] | 1.8 µM | 21 | 0.711 µM | 8 | 2.48 µM | 28 | 7.16 µM | >30 |  | 2.09 µM |  |  |  |  |  |
| Cc1ccc(Nc2cc(N3CCCCC3)nc(N(C)CCc3ccccc3)n2)cc1 [Example 22] | 2.67 µM | >30 | 2.26 µM | >30 | 5.66 µM | >100 | 20.7 µM | >100 |  | 0.176 µM |  |  |  |  |  |
| O=C1C(=Nc2ccc(Br)cc2)c2ccccc2N1c1ccccc1 [Example 98, 3-[(4-BROMOPHENYL)IMINO]-1-PHENYL-1,3-DIHYDRO-2H-INDOL-2-ONE] | 8.46 µM | >100 | 14 µM | >100 | 0.592 µM | 16 | > 50 µM | >100 | > 10 µM |  |  |  |  |  |  |
| COC[C@@H]1[C@@H](c2ccccc2)OCCN1c1nc(Nc2ccc(C)cc2)cc(N2CCCCC2)n1 [Example 49] |  | >30 |  |  |  | >30 |  | >100 |  |  | 12.3 µM | 0.013 µM | 14 µM | > 50 µM | 3.27 µM |
| O=C1C(=Nc2ccc(C(F)(F)F)cc2)c2ccccc2N1c1ccccc1 [Example 95, 1-PHENYL-3-[[4-(TRIFLUOROMETHYL)PHENYL]IMINO]-1,3-DIHYDRO-2H-INDOL-2-ONE] | 11.6 µM | >100 | 21.5 µM | >100 | 0.466 µM | 16 | > 50 µM | >100 | > 10 µM |  |  |  |  |  |  |
| CN(C)c1cc(Nc2ccc(Cl)c(Cl)c2)nc(Nc2ccccc2)n1 [Example 60] | 3.24 µM | >30 | 47.5 µM | >100 | 15.3 µM | >100 | 26.1 µM | >100 |  | > 5 µM |  |  |  |  |  |
| O=C1C(=Nc2cc(Cl)cc(Cl)c2)c2ccccc2N1c1ccccc1 [Example 103, 3-[(3,5-DICHLOROPHENYL)IMINO]-1-PHENYL-1,3-DIHYDRO-2H-INDOL-2-ONE] |  |  |  |  |  |  |  |  | > 10 µM |  |  |  |  |  |  |
| O=C1C(=Nc2cccc(C(F)(F)F)c2)c2ccccc2N1c1ccccc1 [Example 92, 1-PHENYL-3- [[3-(TRIFLUOROMETHYL)PHENYL]IMINO]-1,3-DIHYDRO-2H-INDOL-2-ONE] |  |  |  | >100 |  | >100 |  | >100 |  |  |  |  |  |  |  |
| Cc1ccc(Nc2cc(N3CCCCC3)nc(N3CCN(c4ncccc4C(F)(F)F)CC3)n2)cc1 [Example 34] | 4.44 µM | >100 | 38.9 µM | >100 | 9.92 µM | >100 |  | >100 |  | 0.168 µM |  |  |  |  |  |
| CN(CCc1c[nH]c2ccccc12)c1nc(Nc2ccc(F)c(F)c2)cc(N2CCCCC2)n1 [Example 15] | 2.53 µM | >30 | 1.46 µM | 20 | 8.81 µM | >100 | 11.3 µM | >100 |  | 0.624 µM |  |  |  |  |  |
| Cc1ccc(Nc2cc(N(C)C)nc(N(C)CCc3c[nH]c4ccccc34)n2)cc1 [Example 77] | 1.55 µM | 20 | 0.503 µM | 6 | 2.72 µM | >30 | 2.24 µM | 28 |  | 0.709 µM |  |  |  |  |  |
| O=C1C(=Nc2ccc(Cl)cc2)c2ccccc2N1c1ccccc1 [Example 97, 3-[(4-CHLOROPHENYL)IMINO]-1-PHENYL-1,3-DIHYDRO-2H-INDOL-2-ONE] | 11.3 µM | >100 | 29.1 µM | >100 | 9.72 µM | >100 | > 50 µM | >100 | > 10 µM |  |  |  |  |  |  |
| Cc1ccc(Nc2cc(N3CCCCC3)nc(N(C)CCc3c[nH]c4ccccc34)n2)cc1 [Example 11] | 1.01 µM | 11 | 0.8 µM | 9 | 2.14 µM | 24 | 6.71 µM | >30 |  | 0.681 µM |  |  |  |  |  |
